From US9878021B2, “Compositions and methods for treatment of retinal degenerative diseases” (MOR RESEARCH APPLICATIONS LTD., priority 2013, dated 2018)

Columns and labels:
Type in all cases: cell-based
RPE cells [1] = assay: SA-β-gal (senescence marker) staining
RPE cells [2] = assay: RPE cell size quantification (hypertrophy); settings: TAK1 inhibition combined with oxidative stress, compared to stressed and normal cells
Method: N=40 cells for each treatment.
One of the hallmarks of RPE senescence is cellular hypertrophy. RPE cell size is approximately […]; but upon oxidative stress or genetic mutation RPE cells can undergo enlargement.

RPE cells [3] = assay: Conditioned media (SASP) applied on fresh RPE cells, morphology; settings: applied 72 hours
Method: The most significant effect of senescence, is the acquisition of a senescence-associated secretory phenotype (SASP). SASP can convert senescent cells to proinflammatory cells that promote the secretion of chemokines and cytokines that can affect the microenvironment, including in the human retina (16, 17). To examine the role of TAK1 in this process, RPE cells were treated with TAK1 inhibitor or with H2O2, alone or in combination. After 2 weeks, the media was collected from the three separate treatments, centrifuged and the supernatants (conditioned media) were applied on fresh RPE cells for 72 hours.

RPE cells (ARPE-19) [4] = assay: Double-staining (annexin and propidium iodide) FACS assay of RPE cells; settings: TAK1 inhibitor 1 μM 1 hour prior to H2O2 200 μM; untreated 1.25%, H2O2 alone 31%
Method: (§1) Double-staining (annexin and propidium iodide (PI)) assay of RPE cells. RPE cells (ARPE-19, available from ATCC) were treated for one hour with the TAK1 inhibitor {5Z-7-oxozeaenol (1 μM)}, following 200 μM H2O2 for one hour or left untreated. The cells were then washed with fresh medium and after 24 hours were trypsinized, stained, and analyzed by FACS. The percentage of cells in each cell-cycle phase (G1/G0, S, and G2/M) was determined by its DNA content (FL2A).

RPE cells (ARPE-19) [5] = assay: FACS cell-cycle analysis by DNA content (FL2A)
Method: as §1

[6] = test system: p53, phospho-p38 in RPE cells; assay: Western blot analysis of p53 and phospho-p38
Method: Western blot analysis was performed by standard protocols (11), p53, p38, phospho-p38, GADPH, and TAK1; antibodies were obtained from Enco, Israel.

ARPE-19 cells = assay: Cell viability / proliferation XTT assay
Method: Cell viability assays ARPE-19 cells were seeded in 96-well plates (5000 cells/well) in full medium and were pretreated with the TAK1 inhibitor 5Z-7-oxozeaenol (1 μM) or left untreated for 1 hour. Their viability was then assayed by the XTT assay (cell proliferation kit cat #20-300-1000; Beit Haemek, Israel).
(§2) To determine possible toxicity of anisomycin to RPE cells, RPE cells were treated with anisomycin at different concentration for 5 minute periods. Following treatment, the medium was replaced and fresh medium was added. 72 hours post-treatment, the cells were photographed. […] Their viability was then assayed by the XTT assay.

RPE cells [7] = assay: Anisomycin toxicity to RPE cells, cellular morphology; settings: different concentrations for 5 minute periods, 72 hours post-treatment; low levels
Method: as §2

Compound	number of cells expressing SA-β-gal (RPE cells [1]; TAK1 inhibitor alone, relative to untreated cells)	SA-β-gal expression (RPE cells [1]; pretreatment with TAK1 inhibitor then oxidative stress (H2O2), days 13 and 16)	cell size (RPE cells [2])	phenotype of fresh RPE cells receiving conditioned medium (RPE cells [3]; medium from cells treated with TAK1 inhibitor alone, 2 weeks)	phenotype of fresh RPE cells receiving conditioned medium (RPE cells [3]; medium from cells treated with both TAK1 inhibitor and H2O2, 2 weeks)	number of apoptotic cells expressed as a percentage of the total number (RPE cells (ARPE-19) [4])	G2/M arrest under oxidative stress (RPE cells (ARPE-19) [5]; TAK1 inhibition prior to H2O2 treatment)	percentage of cells at the G0/G1 stage (RPE cells (ARPE-19) [5]; following TAK1 inhibition, of the total number)	p38 phosphorylation ([6]; RPE cells under oxidative stress, pretreated with TAK1 inhibitor 1 μM)	p53 expression levels over a longer period ([6]; TAK1 inhibition, days, compared to untreated cells)	time at which p53 expression peaked ([6]; pretreated cells under oxidative stress, control cells peak after 60 min)	proliferation rate (optical density) (ARPE-19 cells; 1 μM pretreatment 1 hour, untreated cells peak on day 4)	number of SA-β-Gal positive cells (RPE cells [1]; H2O2 1 hour, 10 days growth, anisomycin 10 ng/ml 5 min, five more days, vs untreated cells exposed to oxidative stress)	toxicity to RPE cells (cellular morphology vs control) (RPE cells [7])	rate of cell proliferation (ARPE-19 cells; oxidative stress and anisomycin)
COc1cc(O)c2c(c1)/C=C/C[C@H](O)[C@H](O)C(=O)/C=C\C[C@H](C)OC2=O [5Z-7-oxozeaenol]	dramatically increased	strongly increased	further increases cell size	hypertrophic phenotype similar to that of senescent cells	aberrant morphology similar to that of atrophic RPE cells	24%	reduced	89%	inhibition of p38 phosphorylation	reduced p53 expression levels slightly more than the untreated cells	10 min	slower proliferation rate that began to decrease after 3 days			
COc1ccc(C[C@H]2NC[C@H](O)[C@H]2OC(C)=O)cc1 [anisomycin, (2R,3S,4S)-4-hydroxy-2-(4-methoxybenzyl)-pyrrolidin-3-yl acetate]													reduces the number of SA-β-Gal positive cells	not toxic	did not display reduction
